Experimental data reported in ChEMBL document CHEMBL1201862, “PubChem BioAssay data set” (2004).
Where “and” joins values, the source holds several entries; their conditions need not be identical. Identical values can stand only once.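 In this assay, cells in 96-well plates receive the compound at five concentrations for 48 hours. Endpoints are linearly interpolated between the surrounding concentrations. GI50 marks 50% less growth.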 Calls of active or inactive are those of the source. Cut-off read from the data, not from the text of the source: active = GI50 up to about 1.1 µM and inactive = higher. Where a SMILES comes first, the peptide text is derived from it. [ ]: non-standard residue; d: D form. The star is where a group is joined. Iva = CC[C](C)(N)C(=O)O; Boc = CC(C)(C)OC(=O)*; X54 = C1CCC(=NO*)C1

Experiments:
Assay in all cases: DTP human tumour cell line panel, 48 h
A498 = test system: A498
ACHN = test system: ACHN
CAKI-1 = test system: CAKI-1
HCC 2998 = test system: HCC 2998
HCT-15 = test system: HCT-15
HOP-62 = test system: HOP-62
HOP-92 = test system: HOP-92
IGROV-1 = test system: IGROV-1
OVCAR-4 = test system: OVCAR-4
OVCAR-8 = test system: OVCAR-8
RXF 393 = test system: RXF 393
SF-539 = test system: SF-539
SK-MEL-28 = test system: SK-MEL-28
SK-MEL-2 = test system: SK-MEL-2
SNB-75 = test system: SNB-75
SR = test system: SR
TK-10 = test system: TK-10
UACC-257 = test system: UACC-257
UO-31 = test system: UO-31
MOLT-4 = test system: MOLT-4

Structure (SMILES) | GI50 (A498) | GI50 (ACHN) | GI50 (CAKI-1) | GI50 (HCC 2998) | GI50 (HCT-15) | GI50 (HOP-62) | GI50 (HOP-92) | GI50 (IGROV-1) | GI50 (OVCAR-4) | GI50 (OVCAR-8) | GI50 (RXF 393) | GI50 (SF-539) | GI50 (SK-MEL-28) | GI50 (SK-MEL-2) | GI50 (SNB-75) | GI50 (SR) | GI50 (TK-10) | GI50 (UACC-257) | GI50 (UO-31) | GI50 (MOLT-4)
COC(=O)/C=C\Sc1ccn(/C=C\C(=O)OC)c(=S)n1 | 20.2 µM (inactive) | 18.2 µM (inactive) | 16.6 µM (inactive) | 37.1 µM (inactive) | 16.7 µM | 17.1 µM (inactive) | 18.5 µM (inactive) | 16.9 µM (inactive) | 16.9 µM (inactive) | 19.2 µM (inactive) | 10.5 µM (inactive) | 18.4 µM (inactive) | 29.9 µM (inactive) | 19.9 µM (inactive) | 22.9 µM (inactive) | 13.7 µM (inactive) | 27.9 µM (inactive) | 28.6 µM (inactive) | 25.1 µM (inactive) | –
C/C(=N/NC(=O)c1ccncc1)C(F)(F)F | > 100 µM (inactive) | – | > 100 µM (inactive) | > 100 µM (inactive) | > 100 µM | > 100 µM (inactive) | > 100 µM (inactive) | > 100 µM (inactive) | – | > 100 µM (inactive) | > 100 µM (inactive) | – | > 100 µM (inactive) | > 100 µM (inactive) | > 100 µM (inactive) | > 100 µM (inactive) | > 100 µM (inactive) | – | > 100 µM (inactive) | > 100 µM (inactive)
CCCCCCCCCCCCCCCc1ccc(OCC(O)CO)cc1 (stereo unspecified) | 89.5 µM (inactive) | 65 µM (inactive) | 31.6 µM (inactive) | 22.9 µM (inactive) | 81.8 µM | 47.1 µM (inactive) | 20.7 µM (inactive) | 31.3 µM (inactive) | 16.3 µM (inactive) | 25.7 µM (inactive) | 18.7 µM (inactive) | 49.7 µM (inactive) | 25.6 µM (inactive) | 18.9 µM (inactive) | 27 µM (inactive) | > 100 µM (inactive) | > 100 µM (inactive) | 38.8 µM (inactive) | > 100 µM (inactive) | > 100 µM (inactive)
CC(Oc1ccc(Oc2cnc3ccc(Cl)cc3n2)cc1)C(=O)O (stereo unspecified) | > 80.4 µM (inactive) | 60.5 µM (inactive) | > 100 µM (inactive) | – | – | > 99.3 µM (inactive) | > 100 µM (inactive) | 37.4 µM (inactive) and 47.4 µM (inactive) | > 100 µM (inactive) | > 82.4 µM (inactive) | > 100 µM (inactive) | > 100 µM (inactive) | – | > 100 µM (inactive) | 47.3 µM (inactive) | > 44.5 µM (inactive) | > 100 µM (inactive) | – | > 95.9 µM (inactive) | 15.1 µM (inactive)
CCOC(=O)C1=C(C)N(C2OC(COC(C)=O)C(OC(C)=O)C(OC(C)=O)C2OC(C)=O)C(=O)NC1c1ccccc1 (stereo unspecified) | > 100 µM (inactive) | > 100 µM (inactive) | 83.9 µM (inactive) | > 100 µM (inactive) | > 100 µM | > 100 µM (inactive) | – | > 100 µM (inactive) | > 100 µM (inactive) | > 100 µM (inactive) | – | > 100 µM (inactive) | > 100 µM (inactive) | > 100 µM (inactive) | 55 µM (inactive) | > 100 µM (inactive) | – | > 100 µM (inactive) | > 100 µM (inactive) | 99.1 µM (inactive)
COc1ccccc1/C=C1\Sc2scc(-c3cccc([N+](=O)[O-])c3)[n+]2C1=O | 21.3 µM (inactive) | 3.06 µM (inactive) | 2.43 µM (inactive) | 10.4 µM (inactive) | 2.11 µM | 13.9 µM (inactive) | 4.98 µM (inactive) | 7.46 µM (inactive) | 13.3 µM (inactive) | 7.19 µM (inactive) | 4.58 µM (inactive) | 1.62 µM (inactive) | 15 µM (inactive) | 12.8 µM (inactive) | 12.8 µM (inactive) | 2.19 µM (inactive) | 2.83 µM (inactive) | 7.11 µM (inactive) | 2.86 µM (inactive) | 1.28 µM (inactive)
COc1cc2cc[n+]3c(C)c4cc(OC)c(OC)cc4c([O-])c3c2cc1OC | > 100 µM (inactive) | > 100 µM (inactive) | > 100 µM (inactive) | > 100 µM (inactive) | > 100 µM | > 100 µM (inactive) | > 100 µM (inactive) | 25.7 µM (inactive) | 85.7 µM (inactive) | > 100 µM (inactive) | 35.6 µM (inactive) | 36.9 µM (inactive) | 64.3 µM (inactive) | 56.9 µM (inactive) | 33 µM (inactive) | 61 µM (inactive) | > 100 µM (inactive) | 30.8 µM (inactive) | > 100 µM (inactive) | 48.8 µM (inactive)
CCC(C)(NC(=O)C(C)NC(=O)OC(C)(C)C)C(=O)NC(C)C(=O)NC(C)(CC)C(=O)ON=C1CCCC1 (stereo unspecified) (Boc-A[Iva]A[Iva]-X54; configuration not given here) | > 100 µM (inactive) | – | > 100 µM (inactive) | > 100 µM (inactive) | > 100 µM | > 100 µM (inactive) | > 100 µM (inactive) | > 100 µM (inactive) | – | > 100 µM (inactive) | 16.7 µM (inactive) | – | > 100 µM (inactive) | > 100 µM (inactive) | > 100 µM (inactive) | > 100 µM (inactive) | – | – | > 100 µM (inactive) | 29.9 µM (inactive)
COc1ncnc2c(Cl)c(C(O)c3ccccc3)c(Cl)cc12 (stereo unspecified) | 19.7 µM (inactive) | 26.4 µM (inactive) | 34.7 µM (inactive) | – | 24.6 µM | 15.2 µM (inactive) | 15.7 µM (inactive) | 29.3 µM (inactive) | 29.1 µM (inactive) | 30.5 µM (inactive) | 15.5 µM (inactive) | 20.6 µM (inactive) | 34.6 µM (inactive) | 33.6 µM (inactive) | 22.4 µM (inactive) | 3.5 µM (inactive) | 23 µM (inactive) | > 100 µM (inactive) | 37.3 µM (inactive) | 24 µM (inactive)
OCC(O)COc1ccc(Br)cc1 (stereo unspecified) | > 100 µM (inactive) | > 100 µM (inactive) | > 100 µM (inactive) | > 100 µM (inactive) | > 100 µM | > 100 µM (inactive) | > 100 µM (inactive) | > 100 µM (inactive) | > 100 µM (inactive) | > 100 µM (inactive) | > 100 µM (inactive) | > 100 µM (inactive) | > 100 µM (inactive) | > 100 µM (inactive) | > 100 µM (inactive) | 0.0166 µM (active) | > 100 µM (inactive) | > 100 µM (inactive) | > 100 µM (inactive) | –
